Measurements published in patent US12617818B2, “Compositions and methods for modulating myosin subfragment-2 coiled coil stability and methods for using them” (UNIVERSITY OF NORTH TEXAS, priority 2020, dated 2026).
Several values for one entry are separate records, joined by “and”; a condition that tells them apart may be missing. Equal entries are not always repeated. Each block holds one molecule with its values, some of them ahead of it.

Key:
[1] = target: T1, smooth muscle myosin S2 peptide (MYH11) (Homo sapiens, UniProt P35749); test: FRET of smooth muscle myosin S2 peptide dimer with anti-S2 peptides; type: binding; settings: control, no anti-S2 peptide; read-out: Dissociation Constant (Kd) of S2 peptide dimer
T1 construct: A 21 residue peptide of the S2 region of MYH11 was matched to the previously synthesized S2 peptide; host or cells: chemical synthesis
Text: Human smooth muscle myosin heavy chain (MYH11) is a part of the non-striated muscle. This gene can be found within esophagus, endometrium, duodenum, etc. A 21 residue peptide of the S2 region of MYH11 was matched to the previously synthesized S2 peptide of cardiac isoform and chemically synthesized 926-946. Generated amino acid sequence used is as follow: • Smooth: NH2-[…]—COOH (SEQ ID NO:11)
Resonance energy probes (donor and acceptor) were covalently attached to synthetic myosin S2 peptides of cardiac muscle, E930del cardiac muscle, E924K cardiac muscle, smooth muscle, and skeletal muscle (Aboonasrshiraz, N., 2020).
Acceptor probe was conjugated to muscle myosin S2 peptides at N-terminus. Muscle myosin S2 peptides were dissolved in 20 mM HEPES buffer at pH 8.0. And FITC was dissolved in few drops of N, N dimethyl formamide. Lastly, FITC and muscle myosin S2 peptide was reacted together in 1 to 1 molar ratio and was let to react for 120 minutes at room temperature. […]
In FRET assay, Fluorescein Isothiocyanate (FITC) functioned as fluorescent acceptor probe and Terbium Diethylene Triamine Pentaacetic Acid-Cytosine (Lanthanide-DTPA-Cytosine) functioned as donor probe. […] Lifetime of donor probe was measured in milliseconds.
The specificity of peptides were later tested on the myosin S2 of the smooth muscle (MYH11). […] Calculated separation distance in presence of the stabilizer peptide was 3.34 nm.

[2] = target: skeletal muscle myosin S2 peptide (MYH2) (Homo sapiens, UniProt Q9UKX2); test: GFS, uncoiling of skeletal myosin S2 peptide dimer; type: biochemical; set-up: host or cells: chemical synthesis; settings: length 10 nm, absence of anti-S2 peptides, ± SEM
skeletal muscle myosin S2 peptide (MYH2), sequence (Q9UKX2 918-953 limits assumed): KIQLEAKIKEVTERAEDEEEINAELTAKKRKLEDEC
Text: (§1) 3-aminopropyltriethoxysilane, acetone, coupling buffer (0.01 M pyridine in water with pH 6.0), 5% glutaraldehyde, quenching solution (1 M glycine in water with pH 7.0), blocking buffer (0.01 M Tris, 0.1% sodium azide, 0.1% bovine serum albumin, 0.15 M sodium chloride, and 0.001 M ethylenediaminetetraacetic acid with pH 7.0), wash buffer (0.01 M Tris, 0.1% sodium azide, 0.15 M sodium chloride, and 0.001 M ethylenediaminetetraacetic acid with pH 7.0) low salt buffer (0.1 M potassium chloride, 0.02 M imidazole, 5 mM magnesium chloride, with pH 7.0), 1-ethyl-3-(3-dimethyaminopropyl) carbodiimide, N-hydroxysuccinamide, iodoacetamide-succinimidyl ester, 8M urea solution (50 mM imidazole and 0.1 mM tris (2-carboxyethyl) phosphine with pH 7.0) monodisperse silica beads, glass slides, glass coverslips, vacuum grease, rabbit skeletal myosin, purified actin (G-actin), 1 μM human β-cardiac myosin S2 peptide, 1 μM human β-cardiac mutants myosin S2 peptide (E930del and E924K), 1 μM human skeletal myosin S2 peptide, 1 μM human smooth myosin S2 peptide, stabilizer peptide, and destabilizer peptide. A light microscope with an objective lens of 10× was mounted on an alt-azimuthal mount. A digital video camera of Sony, XCD-V60 was replaced with the ocular lenses. Extension springs on steel bracket held the alt-azimuthal mount suspended.
(§2) Gravitational force spectroscopy (GFS), is a single molecule force spectroscopy that utilizes gravitational force to measure absolute length of a single molecule at the given force calculated by the density of the bead suspending the molecule. This technique was discovered and developed in Root lab, which measures the forces in piconewton and sub-piconewton levels. Other than absolute length of a molecule, GFS measures force range required to uncoil, stretch or extend the molecule yielding a force-distance profile for the suspended molecule. Besides that, based on the force-distance profile, number of amino acids within the molecule can be calculated. […] The GFS allowed to test the flexibility or stability of a single molecule of myosin S2 peptide and also for the S2 peptides treated with anti-S2 peptides. Flexibility of myosin S2 is not dependent on assembly myosin as a thick filament or myosin in its single molecule form. The flexibility of myosin S2 region was reported to be similar in single molecule form or myosin in a thick filament assembly thus it could be conceived that the changes seen on flexibility of myosin S2 in presence of anti-S2 peptides would correlate to changes in myosin S2 flexibility for myosin in a thick filament form (Singh et al., 2018). The schematic diagram of GFS is shown below (schematic diagrams of GFS which has two modes: (FIG. 15) free-fall mode, (FIG. 16) rotational mode.
Free fall mode, another measurement variant of GFS which allows the user to get a force distance profile on a single molecule experiencing the gravitational force. Free fall mode allows a variable force by the virtue of gravity to be exerted on a single molecule. The GFS setup, light microscope with mounted camera on spring on alt-azimuthal platform, can be dropped. The start of free-fall mode force applied to the bead is zero or close to zero. […] As the platform goes towards equilibrium, trace of the acceleration decays. During the free fall mode, GFS has a single molecule which is suspended within an immobile edge and mobile bead will now experience the variable force which would be calculated by the product of mass of the bead and the acceleration of the GFS.
The product of the GFS acceleration and the mass of the bead will provide a force trace for the single molecule tethered between the immobile edge and mobile bead. The image processing would provide distance trace for the single molecule experiencing the free fall by the GFS. When this force trace is aligned with distance trace will yield the extension or the stretch experience by the single molecule under variable forces. […]

[3] = target: T2, cardiac muscle myosin S2 peptide (MYH7) (Homo sapiens, UniProt P12883); test: Gravitational force spectroscopy (GFS), uncoiling of cardiac myosin S2 peptide dimer; type: biochemical; settings: length 10 nm, absence of anti-S2 peptides, ± SEM
T2 construct: host or cells: chemical synthesis
T2 sequence (P12883 912-947 limits assumed): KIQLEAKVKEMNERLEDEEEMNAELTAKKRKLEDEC
Text: as §1, §2
GFS set up assembly contains a light microscope that is horizontally mounted on an alt-azimuthal which is suspended with help of extension springs on a steel bracket. To capture both images and videos of suspended molecule, a digital video camera has been placed instead of the ocular lenses. The molecule of interest is tethered between an immobile edge of glass coverslip placed on a glass slide and mobile silica or glass bead. Slide with the molecule of interest in inserted into the light microscope component of GFS. The bead with molecule of interest is imaged through the microscope and then oriented to the direction of gravity vector to allow the maximal gravitation force exerted on to the bead. GFS has two modes, one is called rotational mode or an equilibrium mode which measures the absolute length of a single molecule and the second one is called free fall mode which measures the force required to unwind, uncoil, stretch or extend the molecule of interest.
Free fall mode, another measurement variant of GFS which allows the user to get a force distance profile on a single molecule experiencing the gravitational force. […]

[4] = tested on: primary polyclonal anti-S2 antibody; test: cELISA of human cardiac myosin S2 peptide against rabbit skeletal myosin S2 for antibody; type: binding; settings: antibody diluted 1:64
Protocol: To evaluate the amount of cardiac myosin S2 peptide that would compete with rabbit skeletal myosin S2 to bind primary polyclonal anti-S2 antibody, the microtiter plate was coated with rabbit skeletal myosin first to that was added two fold dilutions of human cardiac myosin S2 peptide from 1000 nanomolar (nM) to 1 nM. Following this 1:64 diluted primary polyclonal antibody was added. After the washing step, secondary antibody is added followed by BCIP and development of color or OD was recorded and the video was analyzed by Image J. The OD will decrease as the concentration of human cardiac myosin S2 increases. […] The minimum amount of human cardiac myosin S2 peptide that would bind primary polyclonal anti-S2 antibody was at 62.5 nM (FIG. 36). Such a high binding efficiency was expected, since primary polyclonal anti-S2 antibody was raised against the same human cardiac myosin S2.

[5] = target: T3, human cardiac myosin S2 peptide (Homo sapiens, UniProt P12883); test: Competitive ELISA (cELISA) against polyclonal anti-S2 antibody; type: binding; settings: curve fit of OD vs peptide concentration; read-out: binding efficiency (Kd) to human cardiac myosin S2 peptide
T3 construct: The 19 residue peptide was chemically synthesized
Protocol: Phosphate buffer saline (PBS) contained 0.14 M sodium chloride, 2.7 mM potassium chloride, 1.5 mM potassium phosphate monobasic, and 8.1 mM sodium phosphate dibasic with pH 7.4. Detergent buffer was made with 0.05% triton X-100 in PBS, blocking buffer was made with 3% powdered milk in detergent buffer. Assay buffer contained 100 mM potassium phosphate dibasic, 100 mM potassium phosphate monobasic, 1 M potassium chloride and 10 mM magnesium chloride with pH 7.0. Stocks of primary antibody (polyclonal antibody anti-S2), rabbit skeletal myosin, human cardiac myosin S2 peptide, stabilizer and destabilizer peptide. Secondary antibody conjugated with alkaline phosphatase was anti-guinea pig immunoglobulin G (IgG)-alkaline phosphatase (Sigma-Aldrich, catalog number A5062) produced in goat and isolated by affinity chromatography. Substrate was 5-Bromo-4-chloro-3-indolyl phosphate (BCIP) tablets dissolved in 10 ml of distilled water per tablet and 96 well microtiter plate.
Competitive Enzyme Linked Immunosorbent Assay (cELISA) is a classical immunochemical test to validate the binding efficiency and specificity in lower molar concentrations (Yorde et al., 1976; Voller et al., 1978; Walker, J. M. 1996). In this assay the polyclonal antibody anti-S2 raised against single alpha helix of myosin S2 would be used to compete with stabilizer or destabilizer peptide to bind myosin S2 in rabbit skeletal myosin molecule as well as small human cardiac myosin S2 peptide. This cELISA, thus have two molecules polyclonal anti-S2 and stabilizer peptide which have two binding sites one on rabbit skeletal myosin and the other one being on small human cardiac myosin S2. Since both polyclonal anti-S2 and stabilizer peptide were designed against human β-cardiac myosin S2 they both would have a stronger affinity towards the smaller human β-cardiac myosin S2 peptide against the myosin S2 on rabbit skeletal myosin.
To test the binding specificity and efficiency of stabilizer or destabilizer peptide the following setup was used. Start of the setup would be to coat the wells with rabbit skeletal myosin molecule and add appropriate amount human cardiac myosin S2 peptide that would bind the primary polyclonal anti-S2 antibody and when washed there won't be enough primary polyclonal anti-S2 antibody to bind myosin S2 of rabbit skeletal myosin adsorbed on the wells. When alkaline phosphatase conjugated secondary antibody is added on to the wells, it won't have enough or none primary polyclonal anti-S2 antibody to bind. After addition of color developing BCIP substrate to the wells it would lead to low or no color development leading to lower optical density (OD). […]

[6] = target: T4, cardiac muscle myosin S2 peptide E930del (MYH7 E930del) (Homo sapiens, UniProt P12883, DEL931-931); test: GFS, uncoiling of E930del cardiac myosin S2 peptide dimer; type: biochemical; settings: for Force required to uncoil S2 molecule: length 10 nm, absence of stabilizer, ± SEM
T4 construct: host or cells: chemical synthesis
T4 sequence (P12883 with tags, fused parts or gaps DEL931-931): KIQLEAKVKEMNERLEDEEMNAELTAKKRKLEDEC
Text: as §1
as §2, with “The flexibility of myosin S2 region was reported to be similar in single molecule form or myosin in a thick filament assembly thus it could be conceived that the changes seen on flexibility of myosin S2 in presence of anti-S2 peptides would correlate to changes in myosin S2 flexibility for myosin in a thick filament form (Singh et al., 2018). The schematic diagram of GFS is shown below (schematic diagrams of GFS which has two modes: (FIG. 15) free-fall mode, (FIG. 16) rotational mode.” left out
Free fall mode, another measurement variant of GFS which allows the user to get a force distance profile on a single molecule experiencing the gravitational force. […] During the free fall mode, GFS has a single molecule which is suspended within an immobile edge and mobile bead will now experience the variable force which would be calculated by the product of mass of the bead and the acceleration of the GFS. […]

Molecule: H-EVTERAEDEEEINAELTAK-OH [Skeletal Myosin S2, reference compound]
Force required to uncoil S2 molecule [2]: 4.50E−01 ± 5.56E−02 pN | Force required to uncoil S2 molecule ([2]; listed as skeletal muscle myosin S2): 4.50×10^−1±5.56×10^−2 pN

Molecule: H-EMNERLEDEEEMNAELTAK-OH [Cardiac Myosin S2, reference compound]
Force required to uncoil S2 molecule [3]: 8.63E−01 ± 7.45E−02 pN | Force required to uncoil S2 molecule ([3]; listed as cardiac muscle myosin S2): 8.63×10^−1±7.45×10^−2 pN | minimum amount that would bind primary polyclonal anti-S2 antibody [4]: 62.5 nM

Molecule: H-EMNERLEDEEMNAELTAK-OH [Cardiac Myosin S2 Mutant, E930del]
Force required to uncoil S2 molecule [6]: 4.11E−01 ± 2.97E−02 pN | Force required to uncoil S2 molecule ([6]; listed as E930del): 4.11×10^−1±2.97×10^−2 pN | mechanical instability compared to wild type cardiac muscle myosin S2 ([6]; no anti-S2 peptide): 2.10 times

Second part, the molecule after the results:

Kd [1]: 302 nM
Molecule: H-EMEARLEEEEDRGQQLQAERK-OH [Smooth Myosin S2, reference compound]

Kd [5]: 1.37 nM and 1.38 nM
Molecule: C[C@H](NC(=O)[C@H](CCCCN)NC(=O)[C@H](Cc1ccccc1)NC(=O)[C@H](CCCCN)NC(=O)[C@H](CCCCN)NC(=O)[C@H](CCCCN)NC(=O)[C@H](CCCCN)NC(=O)[C@H](CCCCN)NC(=O)[C@H](CCCCN)NC(=O)[C@H](CCCCN)NC(=O)[C@@H](N)CCCCN)C(=O)N[C@@H](CCCCN)C(=O)N[C@@H](CCCCN)C(=O)N[C@@H](CCCCN)C(=O)N[C@@H](CCCCN)C(=O)N[C@@H](CCCCN)C(=O)N[C@@H](CCCCN)C(=O)O [stabilizer peptide]
